Laboratory results from patent US6461997B1, “Triazole sulfones having herbicidal activity” (Monsanto Technology LLC, priority 1999, dated 2002).

Columns and labels:
STEME (common chickweed) = assay: Pre-emergence herbicidal activity, cool season; format: in vivo, Stellaria media; conditions: lowest tested rate with 80% or greater inhibition; rates 300, 100, 30, 10 g/ha; about 14 days
Procedure, shortened: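 Seeds sown in sterilised fertilised topsoil received surface-applied compound in 50:50 acetone/water, typically at 300, 100, 30 and 10 g/ha, then greenhouse-grown at 30/21° C (warm-season species) or 18/13° C (cool-season species). Percent inhibition versus untreated plants was scored at about 14 days, giving GR80; an asterisk marks activity short of 80% at the top rate.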

ECHCG (barnyardgrass) = assay: Pre-plant incorporated (PPI) herbicidal activity, warm season; format: in vivo, Echinochloa crus-galli; conditions: for PPI activity GR80, ECHCG: pre-plant incorporated, lowest tested rate with 80% or greater inhibition, about 14 days
Protocol: (§1) In another set of tests, the pre-plant incorporated (PPI) activity of compounds of this invention was evaluated on the same species as for the pre-emergence tests described above. In the PPI tests the following procedure, designed to simulate PPI application, was used.
(§2) A pre-prepared topsoil mixture (described above) was placed in a pot and compacted to a depth of 1.0 to 1.25 cm from the top of the pot. Seeds of each of several monocotyledonous and dicotyledonous annual plant species were placed on top of the soil. A sufficient quantity of soil to cover the seeds and level fill the pot was weighed into an open container. A known amount of the test compound was dissolved or suspended in an organic solvent and applied by spraying to this cover soil. The cover soil was thoroughly mixed to distribute the test compound throughout the cover soil, and was then applied as a cover layer over the seeds. Untreated soil was used as a cover layer for control pots. After treatment the plants were placed in a greenhouse where they received 0.64 cm of overhead irrigation. All subsequent watering consisted of a light overhead mist and/or subirrigation as needed for germination and growth. Tables 9 and 10 below relate to warm season plant species which were placed after pre-emergence treatment in a greenhouse with a 30/21° C. day/night temperature regime. Tables 11 and 12 below relates to cool season plant species placed after pre-emergence treatment in a greenhouse or growth chamber with an 18/13° C. day/night temperature regime. Only the compounds of Examples 1, 6, 8, 11, 13 and 15-20 were included in PPI tests.
(§3) Approximately 14 days after planting and treating, the plants were observed and herbicidal efficacy recorded as percent inhibition by comparison with untreated plants.

SETFA (giant foxtail) = assay: as above; format: in vivo, Setaria faberi; conditions: for PPI activity GR80, SETFA: pre-plant incorporated, lowest tested rate with 80% or greater inhibition, about 14 days
Protocol: as §1, §2, §3

SORVU (shattercane) = assay: as above; format: in vivo, Sorghum vulgare; conditions: for PPI activity GR80, SORVU: pre-plant incorporated, lowest tested rate with 80% or greater inhibition, about 14 days
Protocol: as §1, §2, §3

[1] = test system: AGRRE (quackgrass (seedling)); assay: Pre-plant incorporated (PPI) herbicidal activity, cool season; format: in vivo, Elymus repens; conditions: for PPI activity GR80, AGRRE: pre-plant incorporated, lowest tested rate with 80% or greater inhibition, about 14 days; for Percent inhibition AGRRE: weed, PPI application
Protocol: as §1, §2, §3

[2] = test system: AEGCY (jointed goatgrass); assay: Post-emergence herbicidal activity, cool season; format: in vivo, Aegilops cylindrica; conditions: abraded plants sprayed at 300, 100, 30 and 10 g/ha; about 14 days after treatment
Protocol: (§4) In another set of tests, the post-emergence activity of compounds of this invention was evaluated on the cool season species listed above. The following procedure was used.
(§5) A pre-prepared topsoil mixture (described above) was placed in a pot and compacted to a depth of 1.0 to 1.25 cm from the top of the pot. Seeds of each of several monocotyledonous and dicotyledonous annual plant species were placed on top of the soil. The seeds were covered with a mixture of 50% topsoil and 50% Rediearth™ in sufficient quantity to level-fill the pots. The pots were then placed on a greenhouse bench and subirrigated as needed.
(§6) When plants growing from the seeds had emerged and reached a suitable growth stage for post-emergence treatment, typically 9 to 14 days after planting, above-ground parts of the plants were subjected to a pre-treatment involving abrasion to create greater opportunity for foliar uptake of subsequently applied compounds. Abrasion was performed using garnet 200w particles applied with a Sears Craftsman hand-held sandblaster operated at approximately 850 kPa (50 psig) pressure.
(§7) A known amount of each test compound dissolved or suspended in an appropriate organic solvent was diluted with a 50:50 mix of acetone and water and applied to the plants by spraying with a standard spray nozzle in a spray volume of […] at a spray pressure of 511 kPa (30 psig). Only the compounds of Examples 1, 8-15 and 17-22 were included in post-emergence tests. Application rates for these compounds were 300, 100, 30 and 10 g/ha. Control plants were abraded but not sprayed.
(§8) After treatment the plants were placed in a greenhouse with an 18/13° C. day/night temperature regime and were subsequently watered as needed for growth. Approximately 14 days after treatment, the plants were observed and herbicidal efficacy recorded as percent inhibition by comparison with control plants. GR80 values were assigned for each compound as described above for the pre-emergence tests.

LOLMG (annual ryegrass) = assay: Post-emergence herbicidal activity, cool season; format: in vivo, Lolium multiflorum; conditions: abraded plants sprayed at 300, 100, 30 and 10 g/ha; about 14 days after treatment
Protocol: as §4, §5, §6, §7, §8

XANST (cocklebur) = assay: Pre-plant incorporated (PPI) herbicidal activity, warm season; format: in vivo, Xanthium strumarium; conditions: PPI application
Protocol: as §1, §2, §3

What does the source list for `CCN(CC)C(=O)n1cnc(S(=O)(=O)C(F)(F)C(=O)c2ccccc2)n1` [Example 6]?
Pre-emergence activity GR80, STEME (STEME (common chickweed)): 300 g/ha; PPI activity GR80, ECHCG (ECHCG (barnyardgrass)): 100 g/ha; PPI activity GR80, SETFA (SETFA (giant foxtail)): 100 g/ha; PPI activity GR80, SORVU (SORVU (shattercane)): 300 g/ha; PPI activity GR80, AGRRE [1]: 300 g/ha

`CCN(CC)C(=O)n1cnc(S(=O)(=O)C(F)(F)C(F)(F)SC)n1` [Example 14] was tested. Which “Post-emergence activity GR80, AEGCY” value [2] did it give?
Its value is “[empty]”.

And the “Pre-emergence activity GR80, STEME” value (STEME (common chickweed))?
The value was 300 g/ha.

What about the “Post-emergence activity GR80, LOLMG” value (LOLMG (annual ryegrass)) of the same compound?
The value was “[empty]”.

Which results are given for `CCN(CC)C(=O)n1cnc(S(=O)(=O)C(F)F)n1` [Example 15, 1-(N,N-diethylcarbamoyl)-3-(difluoromethylsulfonyl)-1,2,4-triazole]?
Post-emergence activity GR80, AEGCY [2]: [empty]; inhibition at 10 g/ha (ECHCG (barnyardgrass); Echinochloa crus-galli, PPI application, 10 g/ha, read-out: Percent inhibition ECHCG): 10%; inhibition at 30 g/ha (ECHCG (barnyardgrass); Echinochloa crus-galli, PPI application, 30 g/ha, read-out: Percent inhibition ECHCG): 50%; inhibition at 100 g/ha (ECHCG (barnyardgrass); Echinochloa crus-galli, PPI application, 100 g/ha, read-out: Percent inhibition ECHCG): 90%; inhibition at 300 g/ha (ECHCG (barnyardgrass); Echinochloa crus-galli, PPI application, 300 g/ha, read-out: Percent inhibition ECHCG): 100%; inhibition at 900 g/ha (ECHCG (barnyardgrass); Echinochloa crus-galli, PPI application, 900 g/ha, read-out: Percent inhibition ECHCG): 90%; PPI activity GR80, ECHCG (ECHCG (barnyardgrass)): 100 g/ha; Post-emergence activity GR80, LOLMG (LOLMG (annual ryegrass)): [empty]; inhibition at 10 g/ha (XANST (cocklebur); Xanthium strumarium, 10 g/ha, read-out: Percent inhibition XANST): 0%; inhibition at 30 g/ha (XANST (cocklebur); Xanthium strumarium, 30 g/ha, read-out: Percent inhibition XANST): 0%; inhibition at 100 g/ha (XANST (cocklebur); Xanthium strumarium, 100 g/ha, read-out: Percent inhibition XANST): 0%; inhibition at 300 g/ha (XANST (cocklebur); Xanthium strumarium, 300 g/ha, read-out: Percent inhibition XANST): 0%; inhibition at 30 g/ha (SETFA (giant foxtail); Setaria faberi, PPI application, 30 g/ha, read-out: Percent inhibition SETFA): 40%; inhibition at 100 g/ha (SETFA (giant foxtail); Setaria faberi, PPI application, 100 g/ha, read-out: Percent inhibition SETFA): 99%; inhibition at 300 g/ha (SETFA (giant foxtail); Setaria faberi, PPI application, 300 g/ha, read-out: Percent inhibition SETFA): 100%; inhibition at 900 g/ha (SETFA (giant foxtail); Setaria faberi, PPI application, 900 g/ha, read-out: Percent inhibition SETFA): 100%; PPI activity GR80, SETFA (SETFA (giant foxtail)): 30 g/ha; inhibition at 10 g/ha (SORVU (shattercane); Sorghum bicolor, PPI application, 10 g/ha, read-out: Percent inhibition SORVU): 10%; inhibition at 30 g/ha (SORVU (shattercane); Sorghum bicolor, PPI application, 30 g/ha, read-out: Percent inhibition SORVU): 60%; inhibition at 100 g/ha (SORVU (shattercane); Sorghum bicolor, PPI application, 100 g/ha, read-out: Percent inhibition SORVU): 100%; inhibition at 300 g/ha (SORVU (shattercane); Sorghum bicolor, PPI application, 300 g/ha, read-out: Percent inhibition SORVU): 100%; inhibition at 900 g/ha (SORVU (shattercane); Sorghum bicolor, PPI application, 900 g/ha, read-out: Percent inhibition SORVU): 100%; PPI activity GR80, SORVU (SORVU (shattercane)): 300 g/ha; PPI activity GR80, AGRRE [1]: 300 g/ha

Which “Pre-emergence activity GR80, STEME” value (STEME (common chickweed)) does the source give for `CCN(CC)C(=O)n1cnc(S(=O)(=O)C(F)(F)C(F)F)n1` [Example 16] here?
The value was 300 g/ha.

And the “Percent inhibition ECHCG” value (ECHCG (barnyardgrass); PPI application, 10 g/ha)?
The value was 90%.

And the “Percent inhibition ECHCG” value (ECHCG (barnyardgrass); PPI application, 30 g/ha)?
The value was 100%.

What about the “Percent inhibition ECHCG” value (ECHCG (barnyardgrass); PPI application, 100 g/ha) of the same compound?
Its value is 100%.

What about the “Percent inhibition ECHCG” value (ECHCG (barnyardgrass); PPI application, 300 g/ha) of the same compound?
Its value is 100%.

What about the “Percent inhibition ECHCG” value (ECHCG (barnyardgrass); PPI application, 900 g/ha) of the same compound?
The value was 100%.

What about the “PPI activity GR80, ECHCG” value (ECHCG (barnyardgrass)) of the same compound?
The value was 30 g/ha.

And the “Percent inhibition XANST” value (XANST (cocklebur); 10 g/ha)?
Its value is 0%.

And the “Percent inhibition XANST” value (XANST (cocklebur); 30 g/ha)?
The value was 0%.

And the “Percent inhibition XANST” value (XANST (cocklebur); 100 g/ha)?
The value was 0%.

And the “Percent inhibition XANST” value (XANST (cocklebur); 300 g/ha)?
The value was 0%.

What about the “Percent inhibition XANST” value (XANST (cocklebur); 900 g/ha) of the same compound?
The value was 95%.

And the “Percent inhibition SETFA” value (SETFA (giant foxtail); PPI application, 10 g/ha)?
Its value is 80%.

What about the “Percent inhibition SETFA” value (SETFA (giant foxtail); PPI application, 30 g/ha) of the same compound?
Its value is 80%.

What about the “Percent inhibition SETFA” value (SETFA (giant foxtail); PPI application, 100 g/ha) of the same compound?
Its value is 100%.

And the “Percent inhibition SETFA” value (SETFA (giant foxtail); PPI application, 300 g/ha)?
Its value is 100%.

And the “Percent inhibition SETFA” value (SETFA (giant foxtail); PPI application, 900 g/ha)?
Its value is 100%.

What about the “PPI activity GR80, SETFA” value (SETFA (giant foxtail)) of the same compound?
Its value is 10 g/ha.

And the “Percent inhibition SORVU” value (SORVU (shattercane); PPI application, 10 g/ha)?
Its value is 20%.

And the “Percent inhibition SORVU” value (SORVU (shattercane); PPI application, 30 g/ha)?
Its value is 80%.

What about the “Percent inhibition SORVU” value (SORVU (shattercane); PPI application, 100 g/ha) of the same compound?
The value was 100%.

What about the “Percent inhibition SORVU” value (SORVU (shattercane); PPI application, 300 g/ha) of the same compound?
Its value is 100%.

What about the “Percent inhibition SORVU” value (SORVU (shattercane); PPI application, 900 g/ha) of the same compound?
The value was 100%.

And the “PPI activity GR80, SORVU” value (SORVU (shattercane))?
The value was 30 g/ha.

What about the “PPI activity GR80, AGRRE” value [1] of the same compound?
The value was 300 g/ha.

What about the “Percent inhibition AGRRE” value ([1]; 10 g/ha) of the same compound?
Its value is 0%.

What about the “Percent inhibition AGRRE” value ([1]; 30 g/ha) of the same compound?
The value was 0%.

And the “Percent inhibition AGRRE” value ([1]; 100 g/ha)?
Its value is 0%.

What about the “Percent inhibition AGRRE” value ([1]; 300 g/ha) of the same compound?
Its value is 20%.

What about the “Percent inhibition AGRRE” value ([1]; 900 g/ha) of the same compound?
Its value is 70%.
